Drawing on patent EP0500137A1, “1,2,4-Triazolo[1,5-a]pyrimidine derivatives, a process for preparing them as well as medicaments containing them and the use of them” (EGIS GYOGYSZERGYAR, priority 1991, dated 1992), this text covers Inhibition % for four compounds.

This assay deals with gastric acid secretion. Briefly: gastric acid secretion inhibiting effect, method of Shay (pylorus bound, free acid titrated). It counts as in vivo, Rats (Wistar breed). The conditions noted are these: given 3 hours before the operation, free acid determined 4 hours after the operation, inhibition in relation to the control. The procedure:
Rats of both sexes (Wistar breed, weighing 180-240 g) were fastened for 48 hours. On the day of the test the pylorus of the animals was bound under ether narcosis. The test compounds were administered orally 3 hours before the operation. 4 hours after the operation the animals were anaesthetized and the stomach was removed, the content thereof was centrifuged and the amount of the free acid was determined by titration, in the presence of Töpfer reagent. The inhibition in relation to the control is calculated in percentage.

With `CSc1nc2nc3c(c(Cl)n2n1)CCC3` [Example 2, 5-Chloro-2-methylthio-6,7-dihydro-8H-cyclopenta[d]-1,2,4-triazolo[1,5-a]pyrimidine], under “Dose 30 mg/kg peroral”, the Inhibition % was found to be 73%.

In the case of `Clc1c2c(nc3nc(N4CCOCC4)nn13)CCCC2` [Example 12, 5-Chloro-2-morpholino-6,7,8,9-tetrahydro-1,2,4-triazolo[5,1-b]quinazoline], the Inhibition % (Dose 200 mg/kg peroral) is recorded as 85%. `CSc1nc2nc3c(c(Cl)n2n1)CCCC3` [Example 6, 5-Chloro-2-methylthio-6,7,8,9-tetrahydro-1,2,4-triazolo[5,1-b]quinazoline] came in with an Inhibition % (Dose 60 mg/kg peroral) of 100%.

Compound `COc1cc(C(=S)N2CCOCC2)cc(OC)c1OC` [Trithiozine, 3,4,5-Trimethoxythio-benzoic acid morpholide, reference compound] gave an Inhibition % (Dose 400 mg/kg peroral) of 63%.
